According to patent US9902696B2, “1,4-substituted piperidine derivatives” (Cephalon, Inc., priority 2015, dated 2018):
Counter-ions that a name gives are not always drawn.

Biological target: T1, recombinant human baculovirus-expressed GST-tagged FASN (Homo sapiens, UniProt P49327)
T1 construct: GST
Experiment: FASN enzyme activity assay, fluorescence-based detection of CoA with CPM
Assay type: biochemical
Settings: 5 nM FASN, 150 μM NADPH, 10 μM acetyl-CoA, 25 μM malonyl-CoA, 90 minutes incubation; read-out: IC50 data for Additional Compounds of Formulae I-V(a): Activity
How it was run: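 Human GST-tagged FASN, baculovirus-expressed (5 nM), in 50 mM HEPES pH 7.5 with 150 μM NADPH, 10 μM acetyl-CoA, 25 μM malonyl-CoA, 0.5% DMSO; malonyl-CoA-started, 90 min. Released CoA detected with CPM (50 μM dilution), 30 min, fluorescence ex 390/em 530. IC50 from variable-slope sigmoidal fit of % inhibition versus log concentration.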

T1 sequence (P49327 whole entry): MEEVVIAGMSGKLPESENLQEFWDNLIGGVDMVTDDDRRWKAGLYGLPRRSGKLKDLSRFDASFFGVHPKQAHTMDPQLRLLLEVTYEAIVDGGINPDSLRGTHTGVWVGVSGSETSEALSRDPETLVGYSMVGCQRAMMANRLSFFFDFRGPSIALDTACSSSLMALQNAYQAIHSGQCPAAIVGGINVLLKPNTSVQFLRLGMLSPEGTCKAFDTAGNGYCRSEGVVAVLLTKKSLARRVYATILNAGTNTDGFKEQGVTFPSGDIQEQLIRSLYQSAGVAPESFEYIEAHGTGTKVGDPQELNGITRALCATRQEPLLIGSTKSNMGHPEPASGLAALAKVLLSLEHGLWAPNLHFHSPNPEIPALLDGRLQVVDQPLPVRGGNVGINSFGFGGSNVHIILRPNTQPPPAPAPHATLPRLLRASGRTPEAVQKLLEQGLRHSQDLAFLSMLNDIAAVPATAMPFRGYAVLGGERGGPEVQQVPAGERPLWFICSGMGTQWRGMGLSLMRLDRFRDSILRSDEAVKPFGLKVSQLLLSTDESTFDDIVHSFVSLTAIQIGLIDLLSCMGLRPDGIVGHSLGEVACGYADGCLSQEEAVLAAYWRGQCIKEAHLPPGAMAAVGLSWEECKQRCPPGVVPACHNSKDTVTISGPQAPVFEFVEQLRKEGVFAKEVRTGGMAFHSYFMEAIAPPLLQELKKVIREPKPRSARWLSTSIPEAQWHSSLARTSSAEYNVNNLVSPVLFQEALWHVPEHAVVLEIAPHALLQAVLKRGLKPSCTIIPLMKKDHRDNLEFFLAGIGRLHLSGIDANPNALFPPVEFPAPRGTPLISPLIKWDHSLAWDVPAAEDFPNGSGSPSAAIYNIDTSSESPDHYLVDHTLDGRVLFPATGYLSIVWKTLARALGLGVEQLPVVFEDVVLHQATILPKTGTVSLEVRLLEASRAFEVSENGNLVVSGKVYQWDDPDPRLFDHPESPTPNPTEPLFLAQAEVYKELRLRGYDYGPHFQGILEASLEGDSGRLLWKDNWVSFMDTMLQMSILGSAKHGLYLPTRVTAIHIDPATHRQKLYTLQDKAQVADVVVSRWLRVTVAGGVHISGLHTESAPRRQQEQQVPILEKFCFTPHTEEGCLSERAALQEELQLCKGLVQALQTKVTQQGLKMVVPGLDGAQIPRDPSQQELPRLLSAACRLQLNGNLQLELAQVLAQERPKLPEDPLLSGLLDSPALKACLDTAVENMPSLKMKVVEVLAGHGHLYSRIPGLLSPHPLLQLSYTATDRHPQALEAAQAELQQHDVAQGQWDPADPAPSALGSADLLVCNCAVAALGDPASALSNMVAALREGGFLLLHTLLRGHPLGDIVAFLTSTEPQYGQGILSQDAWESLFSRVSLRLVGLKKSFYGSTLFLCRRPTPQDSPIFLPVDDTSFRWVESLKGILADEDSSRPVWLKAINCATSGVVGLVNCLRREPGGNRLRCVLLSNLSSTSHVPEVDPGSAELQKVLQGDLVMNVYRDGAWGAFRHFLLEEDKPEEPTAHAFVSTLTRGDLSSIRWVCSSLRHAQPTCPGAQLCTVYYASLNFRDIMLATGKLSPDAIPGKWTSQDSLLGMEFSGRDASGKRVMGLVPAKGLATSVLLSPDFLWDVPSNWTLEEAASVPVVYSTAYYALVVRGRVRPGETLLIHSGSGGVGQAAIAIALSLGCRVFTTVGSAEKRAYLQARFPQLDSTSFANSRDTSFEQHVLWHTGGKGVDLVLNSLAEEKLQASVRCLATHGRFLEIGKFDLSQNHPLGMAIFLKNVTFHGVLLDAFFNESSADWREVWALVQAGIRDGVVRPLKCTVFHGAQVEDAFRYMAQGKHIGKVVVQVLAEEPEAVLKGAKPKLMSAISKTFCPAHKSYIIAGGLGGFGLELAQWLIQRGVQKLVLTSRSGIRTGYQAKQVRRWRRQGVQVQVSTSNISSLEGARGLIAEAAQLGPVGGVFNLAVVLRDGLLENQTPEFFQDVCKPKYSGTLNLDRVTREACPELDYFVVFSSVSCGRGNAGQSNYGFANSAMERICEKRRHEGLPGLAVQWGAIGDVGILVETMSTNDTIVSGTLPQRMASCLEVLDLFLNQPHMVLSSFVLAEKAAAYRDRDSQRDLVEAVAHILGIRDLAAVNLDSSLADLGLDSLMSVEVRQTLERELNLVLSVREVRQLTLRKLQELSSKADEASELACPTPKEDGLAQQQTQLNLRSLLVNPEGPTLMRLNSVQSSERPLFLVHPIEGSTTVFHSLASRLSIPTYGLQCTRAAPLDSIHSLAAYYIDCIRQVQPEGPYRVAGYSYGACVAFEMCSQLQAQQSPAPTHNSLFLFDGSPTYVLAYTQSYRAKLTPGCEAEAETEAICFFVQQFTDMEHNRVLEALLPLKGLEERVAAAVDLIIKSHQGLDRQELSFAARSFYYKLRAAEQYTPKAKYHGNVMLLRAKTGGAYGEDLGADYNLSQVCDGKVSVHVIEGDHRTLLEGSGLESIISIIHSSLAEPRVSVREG

IC50	Compound
1 to 99 nM	Cc1c(-c2ccc(OC3CCN(C(=O)NCCN4CCCC4)CC3)cc2)ccc2cccnc12 [Example 530, 4-[4-(8-Methyl-7-quinolyl)phenoxy]-N-(2-pyrrolidin-1-ylethyl)piperidine-1-carboxamide HCl]
1000 to 10000 nM	Cc1c(-c2ccc(OC3CCN(C(=O)N4CCCCO4)CC3)cc2)ccc2cccnc12 [Example 558, [4-[4-(8-Methyl-7-quinolyl)phenoxy]-1-piperidyl]-(oxazinan-2-yl)methanone]
100 to 999 nM	Cc1c(-c2ccc(OC3CCN(C(=O)NOC(C)C)CC3)cc2)ccc2nccn12 [Example 600, N-Isopropoxy-4-[4-(5-methylimidazo[1,2-a]pyridin-6-yl)phenoxy]piperidine-1-carboxamide]
1000 to 10000 nM	Cc1c(-c2ccc(OC3CCN(C(=O)CCN)CC3)cc2)ccc2cccnc12 [Example 623, 3-Amino-1-[4-[4-(8-methyl-7-quinolyl)phenoxy]-1-piperidyl]propan-1-one, 2HCl]
1 to 99 nM	COCCNC(=O)N1CCC(Oc2ccc(-c3ccc4cccnc4c3C)cc2)CC1 [Example 542, N-(2-Methoxyethyl)-4-[4-(8-methyl-7-quinolyl)phenoxy]piperidine-1-carboxamide HCl]
1000 to 10000 nM	Cc1c(-c2ccc(OC3CCN(C(=O)SC(C)C)CC3)cc2)ccc2cccnc12 [Example 618, S-Isopropyl 4-[4-(8-methyl-7-quinolyl)phenoxy]piperidine-1-carbothioate]

Same assay, conditions: 5 nM FASN, 150 μM NADPH, 10 μM acetyl-CoA, 25 μM malonyl-CoA, 90 minutes incubation; read-out: IC50 data for Compounds of Formulae I-V/V(a): Activity

IC50	Compound
1000 to 10000 nM	CCC(=O)N1CCC(Oc2ccc(-c3ccc4cccnc4c3N(C)C)cc2)CC1 [Example 332, 1-{4-[4-(8-Dimethylaminoquinolin-7-yl)-phenoxy]-piperidin-1-yl}-propan-1-one]
1 to 99 nM	CCC(=O)N1CCC(Oc2ccc(-c3cnc4cccc(F)c4c3)cc2)CC1 [Example 29, 1-{4-[4-(5-Fluoroquinolin-3-yl)-phenoxy]-piperidin-1-yl}-propan-1-one]
100 to 999 nM	O=C(C1CC(F)(F)CO1)N1CCC(Oc2ccc(-c3cnc4ccccc4c3)cc2)CC1 (stereo not shown) [Example 163, (4,4-Difluorotetrahydrofuran-2-yl)-[4-(4-quinolin-3-yl-phenoxy)-piperidin-1-yl]-methanone, HCl]
100 to 999 nM	CCC(=O)N1CCC(Oc2ccc(-c3ccc4cccnc4c3NCCOC)cc2)CC1 [Example 328, 1-(4-{4-[8-(2-Methoxyethylamino)-quinolin-7-yl]-phenoxy}-piperidin-1-yl)-propan-1-one]
1000 to 10000 nM	CCC(=O)N1[C@@H]2CC[C@H]1C[C@H](Oc1ccc(-c3ccc4cccnc4c3C)cc1)C2 [Example 361, 1-{exo-3-[4-(8-Methylquinolin-7-yl)-phenoxy]-8-aza-bicyclo[3.2.1]oct-8-yl}-propan-1-one HCl]
1000 to 10000 nM	O=C(C1CCC1)N1CCC(Oc2ccc(-c3cnc4c(c3)CCCC4)cc2)CC1 [Example 20, Cyclobutyl-{4-[4-(5,6,7,8-tetrahydroquinolin-3-yl)-phenoxy]-piperidin-1-yl}-methanone]
1 to 99 nM	CCC(=O)N1CCC(Oc2ccc(-c3cnc4ccccc4c3C)cc2)CC1 [Example 60]
1000 to 10000 nM	COc1cc2ncc(-c3ccc(OC4CCN(C(=O)[C@H]5CCCO5)CC4)cc3)cc2cc1C [Example 443, {4-[4-(7-Methoxy-6-methylquinolin-3-yl)-phenoxy]-piperidin-1-yl}-(R)-tetrahydrofuran-2-yl-methanone]
1 to 99 nM	Cc1ccc2cc(-c3ccc(OC4CCN(C(=O)[C@H]5CCCO5)CC4)cc3)cnc2c1 [Example 482]
1000 to 10000 nM	CCC(=O)N1CCC(Oc2ccc(-c3cccc(Oc4ccccc4)c3)cc2)CC1 [Example 510, 1-[4-(3′-Phenoxybiphenyl-4-yloxy)-piperidin-1-yl]-propan-1-one]
100 to 999 nM	CC(C)C(=O)N1CCC(Oc2ccc(-c3cnc4ccccc4c3)cc2)CC1 [Example 113, 2-Methyl-1-[4-(4-quinolin-3-yl-phenoxy)-piperidin-1-yl]-propan-1-one, HCl]
1000 to 10000 nM	O=C(C1CC1)N1CCC(Oc2ncc(-c3cnc4ccccc4c3)cn2)CC1 [Example 139, Cyclopropyl-[4-(5-quinolin-3-yl-pyrimidin-2-yloxy)-piperidin-1-yl]-methanone, 2HCl]
100 to 999 nM	CCC(=O)N1CCC(Oc2ccc(-c3cnc4[nH]ccc4c3)cc2)CC1 [Example 32, 1-{4-[4-(1H-Pyrrolo[2,3-b]pyridin-5-yl)-phenoxy]-piperidin-1-yl}-propan-1-one]
100 to 999 nM	CC1(C(=O)N2CCC(Oc3ccc(-c4cnc5ccccc5c4)cc3)CC2)CCCO1 (stereo not shown) [Example 115, (2-Methyltetrahydrofuran-2-yl)-[4-(4-quinolin-3-yl-phenoxy)-piperidin-1-yl]-methanone, HCl]
1 to 99 nM	CCc1cc2cc(-c3ccc(OC4CCN(C(=O)[C@H]5CCCO5)CC4)cc3)ccc2cn1 [Example 476, {4-[4-(3-Ethylisoquinolin-6-yl)-phenoxy]-piperidin-1-yl}-(R)-tetrahydro-furan-2-yl-methanone]
1 to 99 nM	Cc1nccc2cc(-c3ccc(OC4CCN(C(=O)C5CC5)CC4)cc3)ccc12 [Example 481, Cyclopropyl-{4-[4-(1-methylisoquinolin-6-yl)-phenoxy]-piperidin-1-yl}-methanone]
100 to 999 nM	CCC(=O)N1CCC(Oc2ccc(-c3n[nH]c4ccccc34)cc2)CC1 [Example 248, 1-{4-[4-(1H-Indazol-3-yl)-phenoxy]-piperidin-1-yl}-propan-1-one]
1000 to 10000 nM	CCC(=O)N1CCC(Oc2ccc(-c3ccc4c(c3)OCCO4)cc2)CC1 [Example 502, 1-{4-[4-(2,3-Dihydro-1,4-benzodioxin-6-yl)-phenoxy]-piperidin-1-yl}-propan-1-one]
100 to 999 nM	Cn1ncc2ccc(-c3ccc(OC4CCN(C(=O)C5CCC5)CC4)cc3)cc21 [Example 271, Cyclobutyl-{4-[4-(1-methyl-1H-indazol-6-yl)-phenoxy]-piperidin-1-yl}-methanone, TFA salt]
1000 to 10000 nM	CCC(=O)N1CCC(Oc2ccc(-c3ccc4cnc(N(C)C)cc4c3)cc2)CC1 [Example 421, 1-{4-[4-(3-Dimethylaminoisoquinolin-6-yl)-phenoxy]-piperidin-1-yl}-propan-1-one]
1 to 99 nM	O=C(N1CCC(Oc2ccc(-c3cnc4ccccc4c3)cc2)CC1)N1CCCO1 [Example 73, Isoxazolidin-2-yl-[4-(4-quinolin-3-yl-phenoxy)-piperidin-1-yl]-methanone]
100 to 999 nM	Cc1c(-c2ccc(OC3CCN(C(=O)C4CC(F)(F)CO4)CC3)cc2)ccc2cccnc12 (stereo not shown) [Example 164]
1000 to 10000 nM	O=C(c1cccc(-c2nc3ccccc3[nH]2)c1)N1CCC(Oc2ccc(-c3cnc4ccccc4c3)cc2)CC1 [Example 130, [3-(1H-Benzimidazol-2-yl)-phenyl]-[4-(4-quinolin-3-yl-phenoxy)-piperidin-1-yl]-methanone, HCl]
100 to 999 nM	Cc1cc2nccn2cc1-c1ccc(OC2CCN(C(=O)[C@H]3CCCO3)CC2)cc1 [Example 292, {4-[4-(7-Methylimidazo[1,2-a]pyridin-6-yl)-phenoxy]-piperidin-1-yl}-(R)-tetrahydrofuran-2-yl-methanone]
1000 to 10000 nM	O=C(C1CCC1)N1CCC(Oc2ccc(-c3cncc(Oc4ccccc4)c3)cc2)CC1 [Example 400, Cyclobutyl-{4-[4-(5-phenoxypyridin-3-yl)-phenoxy]-piperidin-1-yl}-methanone, HCl]
